Experiments:
Type in all cases: functional
Mus musculus [1] = experiment: Inhibition of PMA-induced ear edema in Swiss mouse at 3 mg/ear after 5 hrs
Mus musculus [2] = experiment: Inhibition of PMA-induced ear edema in Swiss mouse at 3 mg/ear after 1 hr
Mus musculus [3] = experiment: Inhibition of PMA-induced ear edema in Swiss mouse at 3 mg/ear after 3 hrs

Structure (SMILES) | inhibition (INH) (Mus musculus [1]) [%] | inhibition (INH) (Mus musculus [2]) [%] | inhibition (INH) (Mus musculus [3]) [%]
COc1ccc(-c2oc3cc(O)cc(O)c3c(=O)c2OC)cc1 [ERMANIN] | 78.3 | 95.1 | 71.1
COc1ccc2c(c1)c(CC(=O)O)c(C)n2C(=O)c1ccc(Cl)cc1 [INDOMETHACIN] | 51.2 | 47.3 | 38.6
COc1ccc(-c2oc3cc(O)c(OC)c(O)c3c(=O)c2OC)cc1 [SANTIN] | 81.1 | 80.5 | 76.3

From ChEMBL document CHEMBL1145676, “Isolation of two flavonoids from Tanacetum microphyllum as PMA-induced ear edema inhibitors” (1997)
